Data: US20240383869A1, “ARYLACETYL INHIBITORS OF TG2 AND USES THEREOF” (UNIVERSITY OF OTTAWA, priority 2021, published 2024)

Experiments:
hTG1 = target: T1, hTG1 (Homo sapiens, UniProt P22735); assay: Colorimetric transamidase activity assay, isozyme selectivity; format: biochemical; details: normalized [I]/α
T1 sequence (P22735 1-817): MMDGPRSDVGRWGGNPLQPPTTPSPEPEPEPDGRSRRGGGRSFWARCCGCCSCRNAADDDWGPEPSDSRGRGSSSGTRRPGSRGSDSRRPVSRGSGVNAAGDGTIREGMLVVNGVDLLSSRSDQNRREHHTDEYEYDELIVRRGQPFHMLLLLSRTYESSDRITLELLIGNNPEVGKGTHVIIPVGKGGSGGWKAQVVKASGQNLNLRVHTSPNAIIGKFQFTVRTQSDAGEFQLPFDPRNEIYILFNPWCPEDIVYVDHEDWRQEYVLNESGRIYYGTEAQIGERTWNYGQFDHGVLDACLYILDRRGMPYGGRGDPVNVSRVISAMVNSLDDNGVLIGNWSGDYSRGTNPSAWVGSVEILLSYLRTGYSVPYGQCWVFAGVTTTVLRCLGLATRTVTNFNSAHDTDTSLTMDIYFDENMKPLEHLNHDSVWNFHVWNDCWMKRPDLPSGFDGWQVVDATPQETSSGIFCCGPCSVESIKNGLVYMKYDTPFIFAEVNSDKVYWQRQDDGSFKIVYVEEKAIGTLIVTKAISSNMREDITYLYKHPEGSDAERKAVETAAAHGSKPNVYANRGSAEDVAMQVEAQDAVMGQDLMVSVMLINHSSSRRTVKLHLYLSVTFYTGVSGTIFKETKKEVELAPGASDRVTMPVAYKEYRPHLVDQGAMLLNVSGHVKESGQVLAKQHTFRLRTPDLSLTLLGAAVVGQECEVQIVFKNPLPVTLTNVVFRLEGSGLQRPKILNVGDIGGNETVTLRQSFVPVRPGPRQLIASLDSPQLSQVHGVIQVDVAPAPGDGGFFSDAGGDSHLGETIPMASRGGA
Experimental: (§1) Colorimetric transamidase activity assay. The activities of hTG1, hTG2 and hTG6 were measured via a colorimetric assay using the chromogenic substrate Cbz-Glu(γ-p-nitrophenyl ester)Gly (AL5), as described (Leblanc, A. et al., “Kinetic studies of guinea pig liver transglutaminase reveal a general-base-catalyzed deacylation mechanism.” Biochemistry 2001, 40 (28), 8335-8342). Assays were conducted at 25° C. in 50 mM MOPS buffer (pH 6.95) containing 7.5 mM CaCl2. […] Stock solutions of the inhibitors were made in water ranging in concentration from 100-500 μM. The reaction was initiated with the addition of enzyme, 0.10 μM hTG1, 0.25 μM hTG2 (4.6 mU/mL) or 0.32 μM hTG6. Formation of hydrolysis product, p-nitrophenolate (pNP), was monitored at 405 nm in a polystyrene 96-well microplate using a BioTek Synergy 4 plate reader. The observed first-order rate constants of inactivation (kobs) were determined via non-linear regression fit to a mono-exponential model (Eqn 1) of absorbance versus time curves. These rate constants (kobs) were in turn fit to a saturation kinetics model (Eqn 2), by non-linear regression, providing the kinetic parameters kinact and KI, as previously described by Stone and Hofsteenge (Stone, S. R. and Hofsteenge, J., “Specificity of activated human protein C.” Biochem. J. 1985, 230 (2), 497-502). […] Experiments were completed in triplicate at minimum.

hTG6 = target: T2, hTG6 (Homo sapiens, UniProt O95932); assay: as above; format: biochemical; details: normalized [I]/α
T2 sequence (O95932 1-706): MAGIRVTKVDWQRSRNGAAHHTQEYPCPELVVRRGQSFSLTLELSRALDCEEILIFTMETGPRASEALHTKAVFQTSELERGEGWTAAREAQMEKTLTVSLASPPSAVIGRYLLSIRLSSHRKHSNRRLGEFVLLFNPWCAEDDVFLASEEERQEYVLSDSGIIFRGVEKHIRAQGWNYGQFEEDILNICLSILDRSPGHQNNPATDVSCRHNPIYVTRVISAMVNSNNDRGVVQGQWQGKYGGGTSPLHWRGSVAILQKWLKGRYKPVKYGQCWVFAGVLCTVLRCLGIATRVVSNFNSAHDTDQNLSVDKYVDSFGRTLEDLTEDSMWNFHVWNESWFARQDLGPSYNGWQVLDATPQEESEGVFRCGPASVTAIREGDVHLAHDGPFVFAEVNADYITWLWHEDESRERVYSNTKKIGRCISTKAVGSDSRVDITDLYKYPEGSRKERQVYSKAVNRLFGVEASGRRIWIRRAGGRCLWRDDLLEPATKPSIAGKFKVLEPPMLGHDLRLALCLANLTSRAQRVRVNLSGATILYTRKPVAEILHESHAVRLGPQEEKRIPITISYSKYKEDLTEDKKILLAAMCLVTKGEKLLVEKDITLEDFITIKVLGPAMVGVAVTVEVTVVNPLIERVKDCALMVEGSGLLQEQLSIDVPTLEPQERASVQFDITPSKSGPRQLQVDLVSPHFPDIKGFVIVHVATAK
Experimental: as §1

With `C=CC(=O)NCCCC[C@H](NC(=O)Cc1ccccc1C)C(=O)N1CCN(C(=O)c2cccc3ccccc23)CC1` [Inhibitor 74, (S)-N-(6-(4-(1-naphthoyl)piperazin-1-yl)-5-(2-(2-methylphenyl)acetamido)-6-oxohexyl)acrylamide] the “inhibition of TG1” value (hTG1) was “none of these inhibitors showed any detectable inhibition” and the “inhibition of TG6” value (hTG6) was “none of these inhibitors showed any detectable inhibition”.
In the case of `C=CC(=O)NCCCC[C@H](NC(=O)Cc1ccccc1F)C(=O)N1CCN(C(=O)c2cccc3ccccc23)CC1` [Inhibitor 72, (S)-N-(6-(4-(1-naphthoyl)piperazin-1-yl)-5-(2-(2-fluorophenyl)acetamido)-6-oxohexyl)acrylamide], the “inhibition of TG1” value (hTG1) is reported as “none of these inhibitors showed any detectable inhibition” and the “inhibition of TG6” value (hTG6) is reported as “none of these inhibitors showed any detectable inhibition”.
`C=CC(=O)NCCCC[C@H](NC(=O)OCc1ccccc1)C(=O)N1CCN(C(=O)c2cccc3ccccc23)CC1` [AA9, reference compound] was tested, and the “inhibition of TG1” value (hTG1) was “none of these inhibitors showed any detectable inhibition” and the “inhibition of TG6” value (hTG6) was “none of these inhibitors showed any detectable inhibition”.
